# Data taken from article PMC8070173, “Phenelzine and Amoxapine Inhibit Tyramine and d-Glucuronic Acid Catabolism in Clinically Significant Salmonella in A Serotype-Independent Manner” (Pathogens, 2021).
# Biological target: T1, β-glucuronidase (GUS) (Escherichia coli, UniProt P05804)
# T1 construct: gene uidA; purified GUS encoded by E. coli (G8420-25KU, Sigma-Aldrich)
# Experiment: colorimetric PNPG hydrolysis (p-nitrophenol release) with purified enzyme; complete inhibition at […]
# Assay type: biochemical
# T1 sequence (P05804 whole entry): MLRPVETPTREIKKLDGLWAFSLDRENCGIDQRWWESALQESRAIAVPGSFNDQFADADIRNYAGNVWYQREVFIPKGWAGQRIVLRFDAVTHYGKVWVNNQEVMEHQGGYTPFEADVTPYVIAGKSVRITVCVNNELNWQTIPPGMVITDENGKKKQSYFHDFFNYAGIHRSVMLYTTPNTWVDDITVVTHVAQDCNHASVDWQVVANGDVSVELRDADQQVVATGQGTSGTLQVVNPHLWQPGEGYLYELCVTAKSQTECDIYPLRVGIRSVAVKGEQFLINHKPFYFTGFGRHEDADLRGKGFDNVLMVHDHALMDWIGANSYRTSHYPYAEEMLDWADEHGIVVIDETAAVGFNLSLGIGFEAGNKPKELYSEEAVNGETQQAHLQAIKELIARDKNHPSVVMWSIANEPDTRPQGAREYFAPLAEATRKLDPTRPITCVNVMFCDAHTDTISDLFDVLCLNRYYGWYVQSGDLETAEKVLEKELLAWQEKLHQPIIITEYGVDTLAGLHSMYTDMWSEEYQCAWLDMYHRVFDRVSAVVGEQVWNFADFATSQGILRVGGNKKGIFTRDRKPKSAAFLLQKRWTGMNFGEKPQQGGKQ
structure (smiles),measurement,value
Clc1ccc2c(c1)C(N1CCNCC1)=Nc1ccccc1O2 [amoxapine],colorimetric PNPG hydrolysis (p-nitrophenol release) with purified enzyme; compl,50 µM
